Converted amounts (≈) assume the structure as drawn. Blank lines part the entries; values can stand above or below the compound they belong to.
Tests used:
Test in all cases: ≥ marks a high value that may be exact or a test limit, other limits are often not marked, values filed in µg/mL are converted to µM
[1] = system: Fusarium solani KCTC 6326
[2] = system: Fusarium oxysporum KCTC 16909
[3] = system: Aspergillus fumigatus KCTC 6145
[4] = system: Staphylococcus aureus ATCC 25923
[5] = system: Candida albicans KCTC 7270
[6] = system: Candida tropicalis KCTC 7221
Staphylococcus aureus = system: Staphylococcus aureus
[7] = system: Pseudomonas aeruginosa ATCC 15692
[8] = system: Fusarium verticillioides KCTC 6149
[9] = system: Candida parapsilosis CCARM 14016
[10] = system: Trichosporon beigelii KCTC 7707
[11] = system: Aspergillus flavus KCTC 6905
Pseudomonas aeruginosa = system: Pseudomonas aeruginosa
[12] = system: Candida krusei CCARM 14017
[13] = system: Trichophyton rubrum KCTC 6345
[14] = system: Bacillus subtilis KCTC 1998
[15] = system: Escherichia coli ATCC 25922
[16] = system: Salmonella enterica subsp. enterica serovar Typhimurium ATCC 14028
[17] = system: Escherichia coli ATCC 11219
[18] = system: Staphylococcus aureus ATCC 6538
[19] = system: Pseudomonas aeruginosa ATCC 13388
[20] = system: Klebsiella pneumoniae ATCC 10031
[21] = system: Salmonella enterica subsp. enterica serovar Typhi CMCC 50071
[22] = system: Streptococcus pneumoniae ATCC 49619
[23] = system: Micrococcus luteus CMCC 28001
[24] = system: Ralstonia solanacearum ATCC 33192
[25] = system: Bacillus subtilis CMCC 63501
[26] = system: Shigella dysenteriae CMCC 51252
[27] = system: Bacillus subtilis DSM 347
[28] = system: Kocuria rhizophila DSM 348
[29] = system: Escherichia coli DH5alpha
[30] = system: Franconibacter helveticus DSM 18396

MIC [1]: 1 µM (≈ 2.26 µg/mL)
MIC [2]: 1.41 µM (≈ 3.19 µg/mL)
MIC [3]: 2.83 µM (≈ 6.38 µg/mL)
MIC [4]: 2 µM (≈ 4.51 µg/mL)
MIC [5]: 16 µM (≈ 36.1 µg/mL)
MIC [6]: 4 µM (≈ 9.02 µg/mL)
MIC (Staphylococcus aureus): 1.41 µM (≈ 3.19 µg/mL)
MIC [7]: 2 µM (≈ 4.51 µg/mL)
MIC [8]: 1.41 µM (≈ 3.19 µg/mL)
MIC [9]: 16 µM (≈ 36.1 µg/mL)
MIC [10]: 1 µM (≈ 2.26 µg/mL)
MIC [11]: 2.83 µM (≈ 6.38 µg/mL)
MIC (Pseudomonas aeruginosa): 1.41 µM (≈ 3.19 µg/mL)
MIC [12]: 8 µM (≈ 18 µg/mL)
MIC [13]: 1.41 µM (≈ 3.19 µg/mL)
MIC [14]: 2 µM (≈ 4.51 µg/mL)
MIC [15]: 1 µM (≈ 2.26 µg/mL)
Structure (SMILES): CC[C@H](C)[C@H](NC(=O)[C@H](CC(C)C)NC(=O)[C@H](CCCCN)NC(=O)[C@H](CCCCN)NC(=O)[C@H](CC(C)C)NC(=O)[C@H](CCCN=C(N)N)NC(=O)[C@H](CCCCN)NC(=O)[C@@H](N)Cc1ccccc1)C(=O)N[C@@H](CO)C(=O)N[C@@H](Cc1c[nH]c2ccccc12)C(=O)N[C@H](C(=O)N[C@@H](CCCCN)C(=O)N[C@@H](CCCN=C(N)N)C(=O)N[C@@H](CCCCN)C(=O)N[C@@H](CCCN=C(N)N)C(=O)N[C@@H](CCC(N)=O)C(=O)N[C@@H](CCC(N)=O)C(N)=O)[C@@H](C)CC [FKRLKKLISWIKRKRQQ]

MIC [16]: > 50 µM
MIC [17]: 15 µM (≈ 19 µg/mL)
MIC [18]: 20 µM (≈ 25.4 µg/mL)
MIC [19]: ≥ 50 µM
MIC [20]: 10 µM (≈ 12.7 µg/mL)
Structure (SMILES): CC[C@H](C)[C@H](NC(=O)CN)C(=O)N[C@@H](Cc1cnc[nH]1)C(=O)N[C@@H](CC(=O)O)C(=O)N[C@H](C(=O)N[C@@H](CC(C)C)C(=O)N[C@@H](CCCCN)C(=O)N[C@@H](Cc1ccc(O)cc1)C(=O)NCC(=O)N[C@@H](C)C(=O)N1CCC[C@H]1C(=O)N[C@@H](CO)C(N)=O)[C@@H](C)CC [GIHDILKYGAPS]

MIC [4]: 12.5 µM (≈ 25 µg/mL)
MIC [21]: 3.13 µM (≈ 6.25 µg/mL)
MIC [22]: 6.26 µM (≈ 12.5 µg/mL)
MIC [23]: 12.5 µM (≈ 25 µg/mL)
MIC [24]: 6.26 µM (≈ 12.5 µg/mL)
MIC [15]: 6.26 µM (≈ 12.5 µg/mL)
MIC [25]: 6.26 µM (≈ 12.5 µg/mL)
MIC [26]: 1.57 µM (≈ 3.14 µg/mL)
Structure (SMILES): CC[C@H](C)[C@H](NC(=O)[C@H](Cc1c[nH]c2ccccc12)NC(=O)[C@@H](N)CCSC)C(=O)N[C@H](C(=O)N[C@@H](CC(N)=O)C(=O)NCC(=O)NCC(=O)N[C@H](C(=O)N[C@@H](C)C(=O)N[C@@H](CC(N)=O)C(=O)N[C@@H](Cc1c[nH]c2ccccc12)C(=O)N[C@@H](Cc1ccc(O)cc1)C(=O)N[C@@H](Cc1ccccc1)C(=O)N[C@H](C(=O)N[C@@H](CC(C)C)C(=O)N[C@@H](C)C(=O)N[C@@H](CCCN=C(N)N)C(=O)O)C(C)C)C(C)C)[C@@H](C)O [MWITNGGVANWYFVLAR]

MIC [27]: 16 µM (≈ 38.3 µg/mL)
MIC [28]: 4 µM (≈ 9.56 µg/mL)
MIC [29]: ≥ 128 µM
MIC [30]: ≥ 128 µM
Structure (SMILES): CC[C@H](C)[C@H](NC(=O)CN)C(=O)NCC(=O)N[C@@H](CCCCN)C(=O)N[C@@H](Cc1ccccc1)C(=O)N[C@@H](CC(C)C)C(=O)N[C@@H](Cc1cnc[nH]1)C(=O)N[C@@H](CO)C(=O)N[C@@H](C)C(=O)N[C@@H](CCCCN)C(=O)N[C@@H](CCCCN)C(=O)N[C@@H](Cc1ccccc1)C(=O)NCC(=O)N[C@@H](CCCCN)C(=O)N[C@@H](C)C(=O)N[C@@H](C)C(=O)N[C@H](C(=O)NCC(=O)N[C@@H](CCC(=O)O)C(=O)N[C@H](C(=O)N[C@@H](CCSC)C(=O)N[C@@H](CC(N)=O)C(=O)N[C@@H](CO)C(=O)O)[C@@H](C)CC)C(C)C [GIGKFLHSAKKFGKAAVGEIMNS]

Source: DBAASP
